# According to US20130023645A1 (priority 2006, published 2013):
# Several values for one entry are separate records, joined by “and”; a condition that tells them apart may be missing. Equal values may be shown once.
# Molecular target: T1, neuronal-type nicotinic receptors (Bos taurus, UniProt Q07263+Q8SPU6)
# T1 construct: monolayer cultures of bovine adrenal chromaffin cells; endogenous in cells; host or cells: bovine adrenal chromaffin cells (primary monolayer cultures)
# Format: cell-based, bovine
# T1 sequence (Q07263 22-495): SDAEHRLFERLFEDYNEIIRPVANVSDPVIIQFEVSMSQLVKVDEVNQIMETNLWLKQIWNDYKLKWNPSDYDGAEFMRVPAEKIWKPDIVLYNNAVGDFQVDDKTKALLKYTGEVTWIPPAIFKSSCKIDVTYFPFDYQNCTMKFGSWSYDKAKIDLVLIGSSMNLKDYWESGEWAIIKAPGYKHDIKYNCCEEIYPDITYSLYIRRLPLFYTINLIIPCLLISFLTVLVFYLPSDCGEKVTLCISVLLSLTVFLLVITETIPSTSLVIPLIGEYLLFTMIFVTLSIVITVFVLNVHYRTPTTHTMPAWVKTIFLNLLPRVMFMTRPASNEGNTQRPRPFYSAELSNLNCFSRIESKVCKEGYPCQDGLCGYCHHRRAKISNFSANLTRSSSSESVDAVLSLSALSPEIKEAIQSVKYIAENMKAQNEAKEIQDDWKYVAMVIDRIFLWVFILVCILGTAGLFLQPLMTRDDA
# T1 sequence (Q8SPU6 20-496): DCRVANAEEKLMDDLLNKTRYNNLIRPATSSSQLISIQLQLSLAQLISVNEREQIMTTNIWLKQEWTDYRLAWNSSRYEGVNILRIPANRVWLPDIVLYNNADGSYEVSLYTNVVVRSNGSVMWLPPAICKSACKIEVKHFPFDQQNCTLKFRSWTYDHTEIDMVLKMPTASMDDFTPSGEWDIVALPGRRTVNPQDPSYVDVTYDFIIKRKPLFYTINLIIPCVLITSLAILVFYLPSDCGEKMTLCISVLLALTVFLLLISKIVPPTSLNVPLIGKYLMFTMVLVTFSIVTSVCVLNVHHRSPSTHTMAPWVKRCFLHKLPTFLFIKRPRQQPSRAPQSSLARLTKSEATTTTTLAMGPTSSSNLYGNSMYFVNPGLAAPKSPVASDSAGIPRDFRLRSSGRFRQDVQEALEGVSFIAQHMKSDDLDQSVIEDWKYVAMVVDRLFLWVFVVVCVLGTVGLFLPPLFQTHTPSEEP
structure (smiles),measurement,value
"CN1CCCC1c1cccnc1 (centres unmarked) [NICOTINE, nicotine, reference compound]","Adrenaline Release, mean",4.46%
same,"Adrenaline Release, single determinations (1st-4th)",4.31% and 4.52% and 4.48%
same,"Noradrenaline Release, mean",6.85%
same,"Noradrenaline Release, single determinations (1st-4th)",6.62% and 6.89% and 6.99%
same,"noradrenaline released, basal release (0.72%) subtracted",6.13%
